Laboratory results taken from patent US11485727B2, “N-methyl, n-(6-(methoxy)pyridazin-3-yl) amine derivatives as autotaxin (ATX) modulators” (Boehringer Ingelheim International GmbH, priority 2019, dated 2022).

Molecular target: ATX in human whole blood (Homo sapiens (Human), UniProt Q13822)
Test: Assay B: Whole-Blood ATX Assay
Type: biochemical
Settings: not given
In the case of CC(=O)N1CC2CCC(C1)N2c1ccc(CNc2ccc(OCc3ccc(C(F)(F)F)nc3)nn2)cc1 [Example 2.19], the IC50 is reported as 2 nM.

Same assay, conditions: human whole-blood, 1 h at 37° C., formation of 18:2 LPA; read-out: Human whole blood LPA IC50
Compound CC(=O)N1CC2(C1)CN(c1ccc(CNc3ccc(OCc4ccc(C(F)(F)F)nc4)nn3)cc1)C2 [Example 1.1, 1-(6-(4-(((6-((6-(trifluoromethyl)pyridin-3-yl)methoxy)pyridazin-3-yl)amino)methyl)phenyl)-2,6-diazaspiro[3.3]heptan-2-yl)ethan-1-one] has an IC50 of 1.7 nM. CC(=O)N1CC2(C1)CN(c1ccc(CNc3ccc(OCc4ccc(C(F)F)nc4)nn3)cc1)C2 [Example 1.2] gave an IC50 of 1 nM. Compound CC(=O)N1CCN(c2ccc(CNc3ccc(OCc4ccc(C(F)F)nc4)nn3)cc2F)CC1 [Example 1.3] has an IC50 of 1.6 nM. In the case of CC(=O)N1CCN(c2ccc(CNc3ccc(OCc4ccc(C(F)F)nc4)nn3)c(F)c2)CC1 [Example 1.4], the IC50 is reported as 2.8 nM. Compound CN1CC2(CC1=O)CN(c1ccc(CNc3ccc(OCc4ccc(C(F)F)nc4)nn3)cc1)C2 [Example 1.5] has an IC50 of 2 nM. Work on CC(=O)N1CCC2(CC1)CN(c1ccc(CNc3ccc(OCc4ccc(C(F)F)nc4)nn3)cc1)C2 [Example 1.6] yielded an IC50 of 8.7 nM. CC(=O)N1CCN(c2ccc(CNc3ccc(OCc4ccc(C(F)F)nc4)nn3)cc2)CC1(C)C [Example 1.7] showed an IC50 of 12.4 nM. Work on CC(=O)N(C)C1CCN(c2ccc(CNc3ccc(OCc4ccc(C(F)(F)F)nc4)nn3)cc2)CC1 [Example 2.1, N-methyl-N-[1-(4-{[(6-{[6-(trifluoromethyl)pyridin-3-yl]methoxy}pyridazin-3-yl)amino]methyl}phenyl)piperidin-4-yl]acetamide] yielded an IC50 of 4.7 nM. CC(=O)N1CCN(c2ccc(CNc3ccc(OCc4ccc(C(F)(F)F)nc4)nn3)cc2)CC1 [Example 2.2] showed an IC50 of 4.7 nM. Compound CC(=O)N1CCN(c2ccc(CNc3ccc(OCc4ccc(C(F)F)nc4)nn3)cn2)CC1 [Example 2.3] has an IC50 of 4.4 nM. In the case of CC(=O)N1CCN(c2ccc(CNc3ccc(OCc4ccc(C(F)F)nc4)nn3)nc2)CC1 [Example 2.4], the IC50 is reported as 6.8 nM. With CC(=O)N1CCN(c2ccc(CNc3ccc(OCc4ccc(C(F)(F)F)nc4)nn3)cn2)CC1 [Example 2.5] the IC50 was 4 nM. Compound CC(=O)N1CC2CC1CN2c1ccc(CNc2ccc(OCc3ccc(C(F)F)nc3)nn2)cc1 (stereo not drawn) [Example 2.6] has an IC50 of 3.2 nM. Compound CC(=O)N1CCN(c2ccc(CNc3ccc(OCc4ccc(C(F)F)nc4)nn3)c(C(F)(F)F)c2)CC1 [Example 2.7] has an IC50 of 7 nM. FC(F)(F)c1ccc(COc2ccc(NCc3ccc(N4CCN(C5COC5)CC4)cc3)nn2)cn1 [Example 2.8] showed an IC50 of 2.4 nM. In the case of CC(=O)N1CC2(C1)CN(c1ccc(CNc3ccc(OCc4ccc(C(F)(F)F)nc4)nn3)cc1F)C2 [Example 2.9], the IC50 is reported as 4.1 nM. In the case of FC(F)c1ccc(COc2ccc(NCc3ccc(N4CCN(C5COC5)CC4)cc3)nn2)cn1 [Example 2.10], the IC50 is reported as 2.2 nM. CC(=O)N[C@H]1[C@@H]2CN(c3ccc(CNc4ccc(OCc5ccc(C(F)(F)F)nc5)nn4)cc3)C[C@@H]21 [Example 2.11] gave an IC50 of 4 nM. CC(=O)N1CCN(c2ccc(CNc3ccc(OCc4cnc(C(F)F)c(F)c4)nn3)cc2)CC1 [Example 2.12] showed an IC50 of 4.3 nM. In the case of CC(=O)N1C[C@@H]2CN(c3ccc(CNc4ccc(OCc5ccc(C(F)F)nc5)nn4)cc3)C[C@@H]2C1 [Example 2.14], the IC50 is reported as 2.8 nM. Work on CC(=O)N1CCN(c2ccc(CNc3ccc(OCc4ccc(C(F)(F)F)nc4)nn3)nc2)CC1 [Example 2.15] yielded an IC50 of 9.3 nM. CC(=O)N1CCC2(CC1)CN(c1ccc(CNc3ccc(OCc4ccc(C(F)F)nc4)nn3)nc1)C2 [Example 2.16] gave an IC50 of 5.1 nM. In the case of CC(=O)N1CCC2(CC1)CN(c1ccc(CNc3ccc(OCc4ccc(C(F)(F)F)nc4)nn3)cn1)C2 [Example 2.17], the IC50 is reported as 3.5 nM. Work on CC(=O)N1CCC2(CC1)CN(c1ccc(CNc3ccc(OCc4ccc(C(F)F)nc4)nn3)cn1)C2 [Example 2.18] yielded an IC50 of 4.1 nM. Work on CC(=O)N1CC2CCC1CN2c1ccc(CNc2ccc(OCc3ccc(C(F)(F)F)nc3)nn2)cc1 (stereo not drawn) [Example 2.20] yielded an IC50 of 3.7 nM. For CC(=O)N1CC2(C1)CN(c1ccc(CNc3ccc(OCc4ccc(C(F)(F)F)nc4)nn3)c(F)c1)C2 [Example 2.21], the IC50 was 1.4 nM. Compound CC(=O)N1CCC2(CC1)CN(c1ccc(CNc3ccc(OCc4ccc(C(F)(F)F)nc4)nn3)cc1)C2 [Example 2.22] has an IC50 of 3.9 nM. With CC(=O)N1CC2CC1CN2c1ccc(CNc2ccc(OCc3ccc(C(F)(F)F)nc3)nn2)cc1 (stereo not drawn) [Example 2.23] the IC50 was 3.6 nM. In the case of CC(=O)N1CCN(c2ccc(CNc3ccc(OCc4ccc(C(F)F)nc4)nn3)cc2)CC1 [Example 3, 1-[4-(4-{[(6-{[6-(Difluoromethyl)pyridin-3-yl]methoxy}pyridazin-3-yl)amino]methyl}-phenyl)piperazin-1-yl]ethan-1-one], the IC50 is reported as 1.9 nM. In the case of CC(=O)N1CC[C@@H]2CN(c3ccc(CNc4ccc(OCc5ccc(C(F)(F)F)nc5)nn4)cc3)C[C@@H]2CC1 [Example 4], the IC50 is reported as 7.1 nM. For CC(=O)N1C[C@@H]2[C@H](C1)[C@H]1CN(c3ccc(CNc4ccc(OCc5ccc(C(F)(F)F)nc5)nn4)cc3)C[C@@H]21 [Example 5, 1-((3aR,3bS,6aR,6bS)-5-(4-(((6-((6-(trifluoromethyl)pyridin-3-yl)methoxy)pyridazin-3-yl)amino)methyl)phenyl)octahydrocyclobuta[1,2-c:3,4-c′]dipyrrol-2(1H)-yl)ethan-1-one], the IC50 was 7.5 nM.

System: LPA levels
Test: not given
Settings: as disclosed in C. Kuttruff, et al.; cited from earlier work
For O=C(NC[C@@H]1[C@H]2CN(C(=O)OCc3cc(C(F)(F)F)cc(C(F)(F)F)c3)C[C@@H]12)c1ccc2[nH]nnc2c1, the “LPA levels in vivo” value is listed as “significantly reduces”.
